Source: article PMC9295568, “Dual Inhibition of Vacuolar-ATPase and TMPRSS2 Is Required for Complete Blockade of SARS-CoV-2 Entry into Cells” (Antimicrobial Agents and Chemotherapy, 2022)
Counter-ions that a name gives are not always drawn. Like-named read-outs stand apart in the source and are kept apart here.

Columns and labels:
Type in all cases: cell-based
[1] = test system: SARS-CoV-2 PsV (wild-type S protein); experiment: microbe, parasite or virus in culture
[2] = test system: SARS-CoV-2 PsV (wild-type S protein); experiment: microbe, parasite or virus in culture; details: for IC50: Severe acute respiratory syndrome coronavirus 2, Vero-TMPRSS2 (+TMPRSS2), WT PsV, read-out: IC50, inhibition of PsV entry
[3] = test system: SARS-CoV-2 PsV B.1.1.7 (Alpha); experiment: microbe, parasite or virus in culture; details: Severe acute respiratory syndrome coronavirus 2, HeLa-ACE2, read-out: IC50, inhibition of PsV entry
[4] = test system: SARS-CoV-2 PsV B.1.1.7 (Alpha); experiment: microbe, parasite or virus in culture; details: Severe acute respiratory syndrome coronavirus 2, Vero/TMPRSS2, read-out: IC50, inhibition of PsV entry
[5] = test system: SARS-CoV-2 PsV B.1.351 (Beta); experiment: microbe, parasite or virus in culture; details: Severe acute respiratory syndrome coronavirus 2, HeLa-ACE2, read-out: IC50, inhibition of PsV entry
[6] = test system: SARS-CoV-2 PsV B.1.351 (Beta); experiment: microbe, parasite or virus in culture; details: Severe acute respiratory syndrome coronavirus 2, Vero/TMPRSS2, read-out: IC50, inhibition of PsV entry
[7] = test system: SARS-CoV-2 PsV B.1.1.529 (Omicron); experiment: microbe, parasite or virus in culture; details: Severe acute respiratory syndrome coronavirus 2, HeLa-ACE2, read-out: IC50, inhibition of PsV entry
[8] = test system: SARS-CoV-2 PsV B.1.1.529 (Omicron); experiment: microbe, parasite or virus in culture; details: Severe acute respiratory syndrome coronavirus 2, Vero/TMPRSS2, read-out: IC50, inhibition of PsV entry
[9] = test system: authentic SARS-CoV-2 (SARS-CoV-2/Canada/ON/VIDO-01/2020/Vero'76/p2); experiment: microbe, parasite or virus in culture; details: for IC50: Severe acute respiratory syndrome coronavirus 2, Vero 76, read-out: IC50, authentic SARS-CoV-2
[10] = test system: authentic SARS-CoV-2 (SARS-CoV-2/Canada/ON/VIDO-01/2020/Vero'76/p2); experiment: microbe, parasite or virus in culture; details: for IC50: Severe acute respiratory syndrome coronavirus 2, read-out: IC50, authentic SARS-CoV-2
SARS-CoV-2 PsV = test system: SARS-CoV-2 PsV
[11] = test system: endosomal acidification in HeLa-ACE2 cells; experiment: Inhibition of endosomal acidification (LysoTracker Red DND-99), HeLa-ACE2 cells
Method: Inhibition of endosomal acidification was measured using LysoTracker Red DND-99 (ThermoFisher). HeLa-ACE2 and Vero-TMPRSS2 cells were prepared following the above-mentioned protocol, where 10,000 cells/well of pre-seeded cells were cocultured with the same serial dilutions of the sample compounds at 37°C for 2 h. Following this, 0.1 μM final concentration of LysoTracker Red DND-99 (ThermoFisher) was added to each well and incubated for 30 min at 37°C. The cell medium was then replaced with 100 μL of FluoroBrite DMEM (ThermoFisher). Fluorescence was measured using a Synergy Neo2 Multi-Mode Assay Microplate Reader (Biotek Instruments) while employing a Texas Red filter. Data were plotted and IC50 values were calculated using Prism 9 (GraphPad).

HeLa-ACE2 cells = experiment: Cell viability (CellTiter-Glo), HeLa-ACE2 cells; details: same dose range as PsV assay
Method: (§1) In order to confirm that the reduced luminescence was not related to cell toxicity, HeLa-ACE2 and Vero-TMPRSS2 cell viability upon incubation with serial dilutions of the sample compounds were tested in parallel to the neutralization assay. […] Cell viability was monitored by adding 50 μL of CellTiter-Glo reagent (Promega) to 200 μL of media containing cells. After a 10-minute incubation, 100 μL volume was transferred to a 96-well white plate (Sigma-Aldrich) to measure luminescence using a Synergy Neo2 Multi-Mode Assay Microplate Reader (Biotek Instruments). As an additional measure of cell toxicity Vero cell, lacking TMPRSS2, viability was measured using PrestoBlue (ThermoFisher). 10,000 cells/well of pre-seeded Vero cells were cocultured with the same serial dilutions of the sample compounds at 37°C for 48 h. At 48 h, 10 μL of PrestoBlue (ThermoFisher) was added to 100 μL of media containing cells. After a 2 h incubation, fluorescence was measured using a Spectromax m5e (Molecular Devices) at an excitation of 555 nm and emission of 585 nm. Data were plotted and half-cytotoxic concentration (CC50) values were calculated using Prims 9 (GraphPad).

[12] = Cell viability (CellTiter-Glo), HeLa-ACE2 cells; details: human, read-out: half-cytotoxic concentration (CC50)
Method: as §1

[13] = test system: endosomal acidification in Vero cells; experiment: cells; details: for inhibition at 40 µM: Chlorocebus sabaeus, read-out: Percent Inhibition (%) of endosomal acidification
Method: Inhibition of endosomal acidification was measured using LysoTracker Red DND-99 (ThermoFisher). […] Data were plotted using Prism 9 (GraphPad).

[14] = Severe acute respiratory syndrome coronavirus 2, HeLa-ACE2, read-out: IC50, inhibition of PsV entry, HeLa-ACE2 (-TMPRSS2), wild-type S PsV
[15] = HeLa-ACE2, concentrations higher than 1 μM
[16] = Vero cells, 40 μM, singlet (n=1)
[17] = HeLa-ACE2, concentrations up to 40 μM

CN(C)C(=O)COC(=O)Cc1ccc(OC(=O)c2ccc(NC(=N)N)cc2)cc1 [Camostat]
inhibition of PsV entry (in words) ([1]; HeLa-ACE2 cells lacking TMPRSS2): unable to inhibit
IC50 ([1]; Severe acute respiratory syndrome coronavirus 2, HeLa-ACE2, read-out: IC50, inhibition of PsV entry, HeLa-ACE2 (-TMPRSS2), WT PsV): > 300 µM
IC50 [1, 14]: > 200 µM
IC50 [2]: 0.252 µM
IC50 [3]: > 300 µM
IC50 [4]: 0.133 µM
IC50 [5]: > 300 µM
IC50 [6]: 0.275 µM
IC50 [7]: > 300 µM
IC50 [8]: > 7.5 µM
IC50 [9]: > 100 µM
IC50 [10]: 0.038 µM
inhibition of PsV entry by single compound (in words) (SARS-CoV-2 PsV): neither Camostat nor bafilomycin A1 alone fully inhibited PsV entry

CO/C1=C\C(C)=C\[C@@H](C)[C@@H](O)[C@@H](C)C/C(C)=C/C=C/[C@H](OC)[C@@H]([C@@H](C)[C@@H](O)[C@H](C)[C@@]2(O)C[C@@H](O)[C@H](C)[C@@H](C(C)C)O2)OC1=O [bafilomycin A1]
IC50 ([1]; Severe acute respiratory syndrome coronavirus 2, HeLa-ACE2, HeLa-ACE2 (-TMPRSS2), WT PsV, read-out: IC50, inhibition of PsV entry): 0.0004 µM
IC50 [2]: 0.0096 µM
potency of bafilomycin A1 relative to Camostat in stopping viral entry ([2]; Vero-TMPRSS2, ratio of IC50 values): 26 fold
IC50 [3]: 0.0008 µM
IC50 [5]: 0.0005 µM
IC50 [6]: 0.0034 µM
IC50 [7]: 0.0003 µM
IC50 [8]: 0.0019 µM
IC50 ([11]; HeLa-ACE2 cells): 0.0009 µM
associated cell cytotoxicity (in words) (HeLa-ACE2 cells): without displaying any associated cell cytotoxicity
effect on SARS-CoV-2 infection titers (in words) [9]: significantly reduced
IC50 [9]: 0.009 µM
effect on SARS-CoV-2 infection titers (in words) [10]: significantly reduced
IC50 [10]: 0.0004 µM
inhibition of PsV entry by single compound (in words) (SARS-CoV-2 PsV): neither Camostat nor bafilomycin A1 alone fully inhibited PsV entry

CCN(CC)CCCC(C)Nc1c2ccc(Cl)cc2nc2ccc(OC)cc12 (stereo not shown) [quinacrine]
IC50 [1, 14]: 0.9 µM
CC50 [12]: 1.7 µM

O=C(Nc1ccc([N+](=O)[O-])cc1Cl)c1cc(Cl)ccc1O [niclosamide]
PsV infection (in words) [1, 15]: no measurable infection
endosomal acidification inhibition (in words) [11, 15]: efficient endosomal acidification inhibition
CC50 [12]: 0.4 µM
inhibition at 40 µM [13, 16]: 75%

CCN(CC)Cc1cc(Nc2ccnc3cc(Cl)ccc23)ccc1O [amodiaquine]
IC50 [1, 14]: 2.5 µM
CC50 [12]: 34.7 µM

O=C(Nc1cc(Cl)cc(Cl)c1O)c1c(O)c(Cl)cc(Cl)c1Cl [Oxyclozanide, oxyclozanide]
effect on infection levels (in words) [1, 17]: did not alter
effect on endosomal acidification (in words) [11, 17]: did not alter
CC50 [12]: 18.7 µM
inhibition at 40 µM [13, 16]: 55%

CCN(CC)CCCC(C)Nc1ccnc2cc(Cl)ccc12 (stereo not shown) [chloroquine]
IC50 [1, 14]: 2.6 µM
CC50 [12]: 25.7 µM

CC1Cc2ccccc2N1NC(=O)c1ccc(Cl)c(S(N)(=O)=O)c1 (stereo not shown) [INDAPAMIDE]
inhibition at 40 µM [13, 16]: 101%

COC(=O)C1(C)CCCC2(C)c3ccc(O)c(C(C)C)c3CCC12 (stereo not shown) [TOTAROL-19-CARBOXYLIC ACID, METHYL ESTER]
Percent Inhibition (%) of endosomal acidification [13, 16]: 66%

CC(CN(C)C)CN1c2ccccc2CCc2ccccc21 (stereo not shown) [TRIMIPRAMINE MALEATE]
inhibition at 40 µM [13, 16]: 56%

C[CH2][Hg][S]c1ccccc1C(=O)[O-].[Na+] [THIMEROSAL]
Percent Inhibition (%) of endosomal acidification ([13]; 40 µM): 81%

COC(=O)CC[C@@H](C)[C@H]1CC[C@H]2[C@@H]3CC[C@@H]4C[C@H](O)CC[C@]4(C)[C@H]3C[C@H](O)[C@]12C [METHYL DEOXYCHOLATE]
inhibition at 40 µM [13, 16]: 63%

Cc1c(-c2ccc(O)cc2)n(Cc2ccc(OCCN3CCCCCC3)cc2)c2ccc(O)cc12 [BAZEDOXIFENE ACETATE]
inhibition at 40 µM [13, 16]: 89%

CC(C)=CCC/C(C)=C/CC/C(C)=C/CO [FARNESOL]
inhibition at 40 µM [13, 16]: 76%
